ChEMBL document CHEMBL1201862, “PubChem BioAssay data set” (2004)
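In this assay, cells in 96-well plates receive the compound at five concentrations for 48 hours. Endpoints are linearly interpolated between the surrounding concentrations. GI50 is the concentration that inhibits growth by half.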 Active and inactive are the calls of the source. Rule as the data show it: active = GI50 up to about 1.1 µM and inactive = higher.

Experiments:
Test in all cases: growth of human tumour cells (NCI), 48 h
KM12 = test system: KM12
PC-3 = test system: PC-3
M14 = test system: M14
SN12C = test system: SN12C
SK-MEL-28 = test system: SK-MEL-28
HOP-92 = test system: HOP-92
HCT-116 = test system: HCT-116
SF-268 = test system: SF-268
SNB-75 = test system: SNB-75
NCI-H226 = test system: NCI-H226
DU-145 = test system: DU-145
NCI-H460 = test system: NCI-H460
HOP-62 = test system: HOP-62
SNB-19 = test system: SNB-19
HCC 2998 = test system: HCC 2998
UACC-257 = test system: UACC-257
T47D = test system: T47D
TK-10 = test system: TK-10
U-251 = test system: U-251
SW-620 = test system: SW-620
OVCAR-4 = test system: OVCAR-4
NCI/ADR-RES = test system: NCI/ADR-RES
SF-539 = test system: SF-539
OVCAR-3 = test system: OVCAR-3
A549 = test system: A549
OVCAR-8 = test system: OVCAR-8
RXF 393 = test system: RXF 393
MDA-MB-231 = test system: MDA-MB-231
SK-MEL-2 = test system: SK-MEL-2
Hs-578T = test system: Hs-578T
ACHN = test system: ACHN
IGROV-1 = test system: IGROV-1
LOX IMVI = test system: LOX IMVI
BT-549 = test system: BT-549
786-0 = test system: 786-0
EKVX = test system: EKVX
NCI-H522 = test system: NCI-H522
MOLT-4 = test system: MOLT-4
MCF7 = test system: MCF7
SR = test system: SR
HCT-15 = test system: HCT-15
SK-OV-3 = test system: SK-OV-3
CAKI-1 = test system: CAKI-1
K562 = test system: K562
COLO 205 = test system: COLO 205
SF-295 = test system: SF-295
UO-31 = test system: UO-31
SK-MEL-5 = test system: SK-MEL-5
OVCAR-5 = test system: OVCAR-5
MDA-MB-435 = test system: MDA-MB-435
CCRF-CEM = test system: CCRF-CEM
NCI-H23 = test system: NCI-H23
HT-29 = test system: HT-29
HL-60 = test system: HL-60
UACC-62 = test system: UACC-62

## Cc1cc2c([nH]c3ccccc32)c(O)c1-c1c(C)cc2c([nH]c3ccccc32)c1O
KM12
  GI50: 10.1 µM (inactive)
PC-3
  GI50: 13.2 µM (inactive)
M14
  GI50: 14.8 µM (inactive)
SN12C
  GI50: 2.48 µM (inactive)
SK-MEL-28
  GI50: 30.5 µM (inactive)
HOP-92
  GI50: 15.7 µM (inactive)
HCT-116
  GI50: 14.2 µM (inactive)
SF-268
  GI50: 13.8 µM (inactive)
SNB-75
  GI50: 14 µM (inactive)
NCI-H226
  GI50: 18.5 µM (inactive)
DU-145
  GI50: 13 µM (inactive)
NCI-H460
  GI50: 4.57 µM (inactive)
HOP-62
  GI50: 17.1 µM (inactive)
SNB-19
  GI50: 16.9 µM (inactive)
HCC 2998
  GI50: 10.6 µM (inactive)
UACC-257
  GI50: 16.5 µM (inactive)
T47D
  GI50: 15.5 µM (inactive)
TK-10
  GI50: 17.4 µM (inactive)
U-251
  GI50: 11.5 µM (inactive)
SW-620
  GI50: 22.9 µM (inactive)
OVCAR-4
  GI50: 15.3 µM (inactive)
NCI/ADR-RES
  GI50: 13.9 µM (inactive)
SF-539
  GI50: 17 µM (inactive)
OVCAR-3
  GI50: 15.8 µM (inactive)
A549
  GI50: 12.1 µM (inactive)
OVCAR-8
  GI50: 15.7 µM (inactive)
RXF 393
  GI50: 10.5 µM (inactive)
MDA-MB-231
  GI50: 17.5 µM (inactive)
SK-MEL-2
  GI50: 15.8 µM (inactive)
Hs-578T
  GI50: 15.3 µM (inactive)
ACHN
  GI50: 14.3 µM (inactive)
IGROV-1
  GI50: 12.4 µM (inactive)
LOX IMVI
  GI50: 16.7 µM (inactive)
BT-549
  GI50: 18.8 µM (inactive)
786-0
  GI50: 13.7 µM (inactive)
EKVX
  GI50: 13.8 µM (inactive)
NCI-H522
  GI50: 16.7 µM (inactive)

## CC[C@]1(Cc2ccc(OC)c(OC)c2)C=[N+]([O-])O[C@H](OC2CCCC2(c2ccccc2)c2ccccc2)[C@@H]1OC(=O)C(C)(C)C (stereo partly specified)
MOLT-4
  GI50: 2.76 µM (inactive)
KM12
  GI50: 2.54 µM (inactive)
MCF7
  GI50: 2.74 µM (inactive)
PC-3
  GI50: 3.69 µM (inactive)
M14
  GI50: 3.51 µM (inactive)
SR
  GI50: 7.93 µM (inactive)
HCT-15
  GI50: 3.08 µM
SN12C
  GI50: 3.07 µM (inactive)
SK-OV-3
  GI50: 15.2 µM (inactive)
SK-MEL-28
  GI50: 2.09 µM (inactive)
HOP-92
  GI50: 4.14 µM (inactive)
HCT-116
  GI50: 1.98 µM (inactive)
CAKI-1
  GI50: 4.19 µM (inactive)
SF-268
  GI50: 3.15 µM (inactive)
K562
  GI50: 3.61 µM (inactive)
COLO 205
  GI50: 2.6 µM (inactive)
SNB-75
  GI50: 3.63 µM (inactive)
SF-295
  GI50: 3.47 µM (inactive)
NCI-H226
  GI50: 3.27 µM (inactive)
DU-145
  GI50: 2 µM (inactive)
UO-31
  GI50: 1.77 µM (inactive)
NCI-H460
  GI50: 2.69 µM (inactive)
SK-MEL-5
  GI50: 2.03 µM (inactive)
HOP-62
  GI50: 2.49 µM (inactive)
SNB-19
  GI50: 3.84 µM (inactive)
HCC 2998
  GI50: 1.94 µM (inactive)
OVCAR-5
  GI50: 8.71 µM (inactive)
UACC-257
  GI50: 3.5 µM (inactive)
MDA-MB-435
  GI50: 2.03 µM (inactive)
T47D
  GI50: 2.49 µM (inactive)
TK-10
  GI50: 3.23 µM (inactive)
CCRF-CEM
  GI50: 2.6 µM (inactive)
U-251
  GI50: 5.62 µM (inactive)
SW-620
  GI50: 10.1 µM (inactive)
OVCAR-4
  GI50: 3.27 µM (inactive)
NCI/ADR-RES
  GI50: 2.29 µM (inactive)
OVCAR-3
  GI50: 1.55 µM (inactive)
A549
  GI50: 3.11 µM (inactive)
NCI-H23
  GI50: 3.6 µM (inactive)
OVCAR-8
  GI50: 2.19 µM (inactive)
RXF 393
  GI50: 1.63 µM (inactive)
MDA-MB-231
  GI50: 5.56 µM (inactive)
HT-29
  GI50: 1.86 µM (inactive)
SK-MEL-2
  GI50: 2.66 µM (inactive)
Hs-578T
  GI50: 2.72 µM (inactive)
HL-60
  GI50: 2.18 µM (inactive)
ACHN
  GI50: 2.33 µM (inactive)
IGROV-1
  GI50: 2.62 µM (inactive)
LOX IMVI
  GI50: 1.95 µM (inactive)
BT-549
  GI50: 4.38 µM (inactive)
UACC-62
  GI50: 3.66 µM (inactive)
786-0
  GI50: 2.05 µM (inactive)
EKVX
  GI50: 4.61 µM (inactive)
NCI-H522
  GI50: 1.61 µM (inactive)
